Reference: ChEMBL document CHEMBL2151015, “Discovery of a potent, selective, and orally bioavailable acidic 11β-hydroxysteroid dehydrogenase type 1 (11β-HSD1) inhibitor: discovery of 2-[(3S)-1-[5-(cyclohexylcarbamoyl)-6-propylsulfanylpyridin-2-yl]-3-piperidyl]acetic acid (AZD4017)” (J Med Chem, 2012)
In brackets after ≈: the same amount, converted by molar mass.

Tests used:
[1] = Octanol-buffer partition coefficient, log D of the compound after 30 mins by shake flask method at pH 7.4
[2] = Fraction unbound in rat plasma after 18 to 19 hrs by equilibrium dialysis; format: ADME, cell-free
[3] = Intrinsic clearance in rat hepatocytes assessed per 10^6 cells
[4] = Oral bioavailability in rat; format: ADME, organism-based; conditions: in vivo
[5] = in vivo; conditions: rat
[6] = Aqueous solubility of the compound after 24 hrs by LC-UV analysis at pH 7.4; format: physicochemical; conditions: aqueous medium
[7] = Apparent permeability across human Caco2 cells; format: ADME, cell-based; conditions: Caco-2
[8] = Cmax in po dosed Sprague-Dawley rat measured up to 24 hrs; format: ADME, organism-based; set-up: route oral; conditions: in vivo
[9] = Cmax in po dosed Sprague-Dawley rat pre-dosed with ABT administered 2 hrs […] measured up to 24 hrs; format: ADME, organism-based; set-up: route oral; conditions: in vivo
[10] = AUC (0 to t) in po dosed Sprague-Dawley rat measured up to 24 hrs; format: ADME, organism-based; set-up: time < 24 hr, route oral; conditions: plasma
[11] = AUC (0 to t) in po dosed Sprague-Dawley rat pre-dosed with ABT administered 2 hrs […] measured up to 24 hrs; format: ADME, organism-based; set-up: time < 24 hr, route oral; conditions: plasma
[12] = Clearance in po dosed Sprague-Dawley rat measured up to 24 hrs; conditions: in vivo
[13] = Clearance in po dosed Sprague-Dawley rat pre-dosed with ABT administered 2 hrs prior to ABT administration measured up to 24 hrs; conditions: in vivo
[14] = target: 11-beta-hydroxysteroid dehydrogenase 1 (Homo sapiens, UniProt P28845); test: biochemical
11-beta-hydroxysteroid dehydrogenase 1, sequence (P28845 whole entry): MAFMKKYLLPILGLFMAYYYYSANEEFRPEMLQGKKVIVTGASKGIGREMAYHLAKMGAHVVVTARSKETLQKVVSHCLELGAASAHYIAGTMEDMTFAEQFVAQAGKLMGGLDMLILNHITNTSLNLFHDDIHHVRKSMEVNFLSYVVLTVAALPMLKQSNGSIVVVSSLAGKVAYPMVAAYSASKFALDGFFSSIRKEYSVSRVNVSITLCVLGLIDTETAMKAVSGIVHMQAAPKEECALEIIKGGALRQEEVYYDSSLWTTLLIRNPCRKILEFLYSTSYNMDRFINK
Description: Inhibition of N-terminal His6-tagged full length human 11betaHSD1 expressed in baculovirus infected cells using cortisone as substrate after 25 mins by HTRF assay

SMILES	fraction unbound [2]	hepatocyte CLint [3]	bioavailability [4]	clearance [5]	logD at 0.5 h ([1]; octanol/buffer)	further results
CCCN(C)c1nc(N2CCC[C@@H](CC(=O)O)C2)ccc1C(=O)NC1CCCCC1	0.018	12 µL/min/1e6 cells	39%	15 mL/min/kg		logD at 0.5 h ([1]; octanol/water): 2.3
CCCOc1nc(N2CCC[C@@H](CC(=O)O)C2)ccc1C(=O)NC1CCCCC1	0.006	9 µL/min/1e6 cells	> 100%	9 mL/min/kg	2.8	
CCCSc1nc(N2CCC(C(=O)O)CC2)ccc1C(=O)NC1CCCCC1	0.03	< 2 µL/min/1e6 cells	> 100%	8 mL/min/kg		logD at 0.5 h ([1]; octanol/water): 1.6
CCCSc1ncccc1C(=O)NC1CCCCC1	0.13		0%		3.2	solubility at 24 h [6]: 82 µM (≈ 22.8 µg/mL); Papp [7]: 27 ×10⁻⁶ cm/s; Cmax [8]: 39 ng/mL; Cmax [9]: 514 ng/mL; AUC(0-t) at 24 h [10]: 80 ng·h/mL; AUC(0-t) at 24 h [11]: 2510 ng·h/mL
CCCSc1nc(N2CCCCC2C(=O)O)ccc1C(=O)NC1CCCCC1 (stereo not given)	0.019	10 µL/min/1e6 cells	> 100%	12 mL/min/kg	1.4	
CCCSc1ncccc1C(=O)N(C)[C@@H]1[C@@H]2CC3C[C@H]1C[C@@](O)(C3)C2	0.2	140 µL/min/1e6 cells	0%	24 mL/min/kg		logD at 0.5 h ([1]; octanol/water): 2.5
CCCSc1nc(N[C@H]2CC[C@H](C(=O)O)CC2)ccc1C(=O)NC1CCCCC1	0.029	< 2 µL/min/1e6 cells	> 100%	6 mL/min/kg		
CCCCc1nc(N2CCC[C@@H](CC(=O)O)C2)ccc1C(=O)NC1CCCCC1	0.06	< 2 µL/min/1e6 cells	57%	4 mL/min/kg	1.6	
CCCSc1ncccc1C(=O)N[C@@H]1[C@@H]2CC3C[C@H]1C[C@@](O)(C3)C2	> 0.5	49 µL/min/1e6 cells	11%	110 mL/min/kg	2.3	
CCCSc1nc(N2CCC(CC(=O)O)CC2)ccc1C(=O)NC1CCCCC1	0.032	6 µL/min/1e6 cells	90%	4 mL/min/kg	2	
O=S(=O)(Cc1c(F)cccc1F)N1CCN(c2ncccc2C(F)(F)F)CC1	0.005	272 µL/min/1e6 cells	0%		3.9	solubility at 24 h [6]: 2 µM (≈ 0.843 µg/mL); Papp [7]: 10 ×10⁻⁶ cm/s; CL/F at 24 h [12]: 20 mL/min/kg; CL/F [13]: 14 mL/min/kg
CCCSc1nc(N2CCC[C@H](CC(=O)O)C2)ccc1C(=O)NC1CCCCC1	0.006	8 µL/min/1e6 cells	79%	1 mL/min/kg	2.2	
CCCSc1ncccc1C(=O)N(C)C1CCCCC1	0.1	> 350 µL/min/1e6 cells	0%	48 mL/min/kg	3.4	
CCCSc1nc(Oc2cccc(CCC(=O)O)c2)ccc1C(=O)NC1CCCCC1	0.006	15 µL/min/1e6 cells			1.7	
CCCSc1ncccc1C(=O)NC1CCC(F)(F)CC1	0.29	130 µL/min/1e6 cells	0%	30 mL/min/kg		
CCCSc1ncccc1C(=O)N(C)C1CCOCC1	0.49	90 µL/min/1e6 cells	0%	46 mL/min/kg	1.6	
CCCSc1ncccc1C(=O)N[C@H]1CC[C@@H](C(=O)O)CC1	0.41	< 2 µL/min/1e6 cells	81%	2.5 mL/min/kg	< 0.5	IC50 [14]: > 30 µM
CCCSc1nc(Oc2ccc(CC(=O)O)cc2)ccc1C(=O)NC1CCCCC1	0.003	< 2 µL/min/1e6 cells			1.8	
CCCSc1ncccc1C(=O)N1CCCC1c1ccncc1 (stereo not given)	0.13	120 µL/min/1e6 cells	0%	39 mL/min/kg	2	
CCCNc1nc(N2CCC[C@@H](CC(=O)O)C2)ccc1C(=O)NC1CCCCC1	0.029	7 µL/min/1e6 cells	72%	4 mL/min/kg	2.3	
CCCSc1nc(NC[C@H]2CC[C@H](C(=O)O)CC2)ccc1C(=O)NC1CCCCC1	0.015	8 µL/min/1e6 cells	81%	8 mL/min/kg	2.6	
CCCSc1nc(N2CCCC(C(=O)O)C2)ccc1C(=O)NC1CCCCC1 (stereo not given)	0.023	6 µL/min/1e6 cells	45%	4 mL/min/kg	1.7	
CCCSc1ncccc1C(=O)N(C)[C@H]1[C@@H]2CC3C[C@H]1C[C@@](O)(C3)C2	0.41	140 µL/min/1e6 cells				logD at 0.5 h ([1]; octanol/water): 2.5
